Results as given in PMC10245560 (bioRxiv, 2023).

Columns and labels:
[1] = test system: B. subtilis; details: ref Fage et al., 2020; cited from earlier work
[2] = test system: B. subtilis 168; assay: Bacterial cell wall integrity; format: cell-based; details: phase-contrast microscopy
[3] = HS-AFM of fibrils on supported lipid bilayers; format: physicochemical; details: supported lipid bilayer with lipid II, errors are standard deviation, SD

Molecule	activity against B. subtilis [1]	cell-shape deformations / blebbing phenotype [2]	height of fibrils above the membrane surface [3] [nm]
C=C(CC/C=C\C=C\C[C@H](C)CC(=O)C[C@@H](O)CNC(=O)[C@H](C)[C@@H](C)OC(N)=O)C[C@@H](C)C/C(C)=C/C(=O)O [kalimantacin]	not active	–	–
CN[C@H](CC(C)C)C(=O)N[C@H]1C(=O)N[C@@H](CC(N)=O)C(=O)N[C@H]2C(=O)N[C@H]3C(=O)N[C@H](C(=O)N[C@H](C(=O)O)c4cc(O)cc(O)c4-c4cc3ccc4O)[C@H](O)c3ccc(c(Cl)c3)Oc3cc2cc(c3O[C@@H]2O[C@H](CO)[C@@H](O)[C@H](O)[C@H]2O[C@H]2C[C@](C)(N)[C@H](O)[C@H](C)O2)Oc2ccc(cc2Cl)[C@H]1O [vancomycin]	–	similarly observed	–
hypeptin	–	similarly observed	–
teixobactin	–	similarly observed	0.8 ± 0.1
